Source: patent US20230406883A1, “COMPOUNDS AND THEIR USE IN TREATMENT OF TACHYKININ RECEPTOR MEDIATED DISORDERS” (Embark Biotech ApS, priority 2020, published 2023)
Numbered stars: 1 amine (or outer) side, 2 acyl side, 3 side chain; on linkers, the order of the positions; unused ones are H or OH. Square brackets hold non-standard residues; d marks the D form. Peptide text beside a SMILES is read from it. * marks the point of attachment. C20 diacid = O=C(O)CCCCCCCCCCCCCCCCCCC(=O)*; C18 diacid = O=C(O)CCCCCCCCCCCCCCCCC(=O)*; γGlu = O=C(O)[C@H](CCC(=O)[*:2])N[*:1]; C14 diacid = O=C(O)CCCCCCCCCCCCC(=O)*; Conj‑Neu‑C18DA = not defined here; NMeL = CN[C@@H](CC(C)C)C(=O)O; hSer = N[C@@H](CCO)C(=O)O; Nle = CCCC[C@H](N)C(=O)O; AEEA = NCCOCCOCC(=O)O; βAla = NCCC(=O)O

How the values were obtained:
Test in all cases: IP3 assay (inositol trisphosphate, 3H-myoinositol) in transiently transfected COS-7 cells
Type in all cases: cell-based
hNK1R = biological target: T1, hNK1R (Homo sapiens, UniProt P25103); conditions: for hNK1R, IP3 Efficacy / EC50: COS-7 cells; for hNK1R, IP3 Efficacy: figure legends: percent of 10^-6 M NKA; for EC50: 0.2% ovalbumin buffer
T1 construct: host or cells: COS-7
T1 sequence (P25103 whole entry): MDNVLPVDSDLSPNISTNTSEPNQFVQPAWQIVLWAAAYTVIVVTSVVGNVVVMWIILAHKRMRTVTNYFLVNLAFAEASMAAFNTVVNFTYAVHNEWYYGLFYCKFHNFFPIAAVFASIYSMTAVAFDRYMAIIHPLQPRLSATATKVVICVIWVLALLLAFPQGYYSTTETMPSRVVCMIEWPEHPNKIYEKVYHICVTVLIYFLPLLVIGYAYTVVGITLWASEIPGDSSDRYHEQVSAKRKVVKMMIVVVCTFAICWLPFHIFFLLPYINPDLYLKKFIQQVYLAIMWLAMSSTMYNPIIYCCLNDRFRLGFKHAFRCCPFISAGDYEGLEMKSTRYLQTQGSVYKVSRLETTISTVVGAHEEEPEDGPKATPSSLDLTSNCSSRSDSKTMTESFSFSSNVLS
Description: (§1) Agonist-induced G-protein coupled receptor (GPCR) activation was measured by an Inositol-1,4,5-Trisphosphate [^3H] Radioreceptor Assay (IPs Assay). Assays were carried out using COS-7 cells transiently transfected by calcium phosphate transfection with a vector pcDNA3.1(+) encoding one of the indicated receptors (Genscript). Briefly, DNA mixed with CaCl2 (2 M) and TE-buffer (10 mM Tris-HCl, 1 mM EDTA, pH 7.5) was dropwise added to 2×HBS (50 mM HEPES, 280 mM NaCl, 1.5 mM NaH2PO4, pH 7.2) and incubated for 45 min at room temperature (22±2° C.). The mixture and a final concentration of 100 μM Chloroquine were added to the cells and left to incubate for 5 hours at 37° C. under standard cell culture conditions (10% CO2) before changing medium to fresh medium containing 5 μl/mL Myo-[2-^3H(N)]-inositol (labelling medium).
(§2) The IP3 assay takes advantage of the tachykinin receptors' ability to induce production of the inositol trisphosphate (IP3) second messenger upon agonist (ligand) binding on receptor expressing cells following an initial ^3H-inositol labelling period. In effect this means that production of the second messenger IP3 as a measure of receptor activity can be assessed by counting ^3H-activity.
(§3) Assay solutions used: Wash buffer (HBSS), Assay buffer (HBSS+10 mM LiCl and 0,2% w/v ovalbumin), Lysis buffer (10 mM formic acid), and SPA YSI beads (12.5 mg/ml in H2O). The assay was performed the day after transfection. Briefly, labelling medium was aspirated, and plates were washed ×1 in wash buffer before adding 100 μl assay buffer, pre-incubated for 30 min followed by 120 min incubation with agonist, both at 37° C. After incubation, plates were immediately placed on ice and the incubation medium was aspirated and 40 μl of 10 mM formic acid per well was added. Plates were incubated for at least 30 min on ice. 60 μl (1 mg/well) SPA YSI beads/well was pipetted into a solid white 96 wells plate and 35 μl of the lysis solution was transferred to the plate before covering plates with seal cover and shaking for 10 min. (max speed). Centrifuge plates and leave for 8 hours at room temperature before counting the plates in a MicroBeta plate counter (Perkin Elmer).

hNK2R = biological target: T2, hNK2R (Homo sapiens, UniProt P21452); conditions: for EC50 / hNK2R, IP3 Efficacy: COS-7 cells; for EC50: 0.2% ovalbumin buffer; for hNK2R, IP3 Efficacy: figure legends: percent of 10^-6 M NKA
T2 construct: host or cells: COS-7
T2 sequence (P21452 1-398): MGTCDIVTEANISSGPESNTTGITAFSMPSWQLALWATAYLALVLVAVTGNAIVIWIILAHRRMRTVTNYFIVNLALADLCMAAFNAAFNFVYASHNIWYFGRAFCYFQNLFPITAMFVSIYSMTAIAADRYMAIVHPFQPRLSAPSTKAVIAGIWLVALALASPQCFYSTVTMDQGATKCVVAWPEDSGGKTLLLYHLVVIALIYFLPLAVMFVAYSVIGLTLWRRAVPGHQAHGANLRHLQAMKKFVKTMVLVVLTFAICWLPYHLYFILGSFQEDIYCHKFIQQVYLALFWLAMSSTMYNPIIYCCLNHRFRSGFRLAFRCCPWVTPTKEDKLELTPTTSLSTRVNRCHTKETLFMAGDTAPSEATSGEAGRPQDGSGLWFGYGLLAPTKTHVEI
Description: as §1, §2, §3

hNK3R = biological target: T3, hNK3R (Homo sapiens, UniProt P29371); conditions: for hNK3, IP3 Efficacy / EC50: COS-7 cells; for hNK3, IP3 Efficacy: figure legends: percent of 10^-6 M NKA; for EC50: 0.2% ovalbumin buffer, read-out: hNK3, IP3 EC50
T3 construct: host or cells: COS-7
T3 sequence (P29371 1-465): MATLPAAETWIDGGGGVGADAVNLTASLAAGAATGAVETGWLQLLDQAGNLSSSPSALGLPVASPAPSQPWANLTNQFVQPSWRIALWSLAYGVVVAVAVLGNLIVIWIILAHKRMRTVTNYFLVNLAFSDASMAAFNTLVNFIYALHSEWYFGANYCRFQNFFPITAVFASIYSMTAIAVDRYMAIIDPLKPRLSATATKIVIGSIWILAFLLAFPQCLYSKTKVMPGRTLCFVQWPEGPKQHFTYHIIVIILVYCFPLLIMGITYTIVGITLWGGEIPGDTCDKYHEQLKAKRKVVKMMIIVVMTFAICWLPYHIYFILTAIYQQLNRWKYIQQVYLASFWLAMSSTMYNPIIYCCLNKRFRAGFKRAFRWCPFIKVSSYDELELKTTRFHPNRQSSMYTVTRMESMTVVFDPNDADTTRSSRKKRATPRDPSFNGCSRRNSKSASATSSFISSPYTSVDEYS
Description: as §1, §2, §3

Compound | hNK1R, IP3 Efficacy (hNK1R) [%] | EC50 (hNK2R) [nM] | hNK2R, IP3 Efficacy (hNK2R) [%] | hNK3, IP3 Efficacy (hNK3R) [%] | EC50 (hNK1R) [nM] | EC50 (hNK3R) [nM] | hNK1R receptor activation, in words (hNK1R) | hNK2R receptor activation, in words (hNK2R) | hNK3R receptor activation, in words (hNK3R)
CCCC[C@H](NC(=O)[C@H](CC(C)C)N(C)C(=O)CNC(=O)[C@@H](NC(=O)[C@H](Cc1ccccc1)NC(=O)[C@H](CCCCN)NC(=O)[C@H](CCC(=O)O)NC(=O)COCCOCCNC(=O)COCCOCCNC(=O)CC[C@H](NC(=O)CCCCCCCCCCCCCCCCC(=O)O)C(=O)O)[C@@H](C)O)C(N)=O [compound 397, *Glu;Lys;Phe;Thr;Gly;NmLeu;Nle;NH2] ({C18 diacid-γGlu-AEEA-AEEA}-EKFTG[NMeL][Nle]-NH2) | 0 | 28 | 75 | 0 | – | – | – | – | –
CCCC[C@H](NC(=O)[C@H](CC(C)C)N(C)C(=O)CCNC(=O)[C@@H](NC(=O)[C@H](Cc1ccccc1)NC(=O)[C@H](CO)NC(=O)[C@H](CC(=O)O)NC(=O)[C@@H](NC(=O)[C@H](CCCCN)NC(=O)COCCOCCNC(=O)COCCOCCNC(=O)CC[C@H](NC(=O)CCCCCCCCCCCCCCCCC(=O)O)C(=O)O)[C@@H](C)O)C(C)C)C(N)=O [compound 310, *Lys;Thr;Asp;Ser;Phe;Val;bAla;NmLeu;Nle;NH2] ({C18 diacid-γGlu-AEEA-AEEA}-KTDSFV[βAla][NMeL][Nle]-NH2) | 0 | 45 | 65 | 80 | – | – | – | – | –
COCC[C@H](NC(=O)[C@H](CC(C)C)N(C)C(=O)CNC(=O)[C@@H](NC(=O)[C@H](Cc1ccc(O)cc1)NC(=O)[C@H](CCCCN)NC(=O)[C@H](CCC(=O)O)NC(=O)COCCOCCNC(=O)COCCOCCNC(=O)CC[C@H](NC(=O)CCCCCCCCCCCCCCCCC(=O)O)C(=O)O)C(C)C)C(N)=O [compound 382, *Glu;Lys;Tyr;Val;Gly;NmLeu;Metox;NH2] ({C18 diacid-γGlu-AEEA-AEEA}-EKYVG[NMeL][hSer](Me)-NH2) | 30 | 3.7 | 95 | 20 | ~3800 | – | – | – | –
*Asp;Lys;Pro;Val;Gly;NmLeu;Nle;NH2 ({Conj‑Neu‑C18DA}-DKPVG[NMeL][Nle]-NH2; reading uncertain; also: printed as *Asp;Lys;Pro;Val;Gly;NmLeu;Nle;NH2) [compound 362, * is Conj-Neu-C18DA protractor on N-terminal α-amino group] | 0 | – | 0 | 0 | – | – | complete loss of receptor activation on NK1-3Rs | complete loss of receptor activation on NK1-3Rs | complete loss of receptor activation on NK1-3Rs
CCCC[C@H](NC(=O)[C@H](CC(C)C)N(C)C(=O)CNC(=O)[C@@H](NC(=O)[C@H](Cc1ccccc1)NC(=O)[C@H](CCCNC(=N)N)NC(=O)[C@H](CC(=O)O)NC(=O)COCCOCCNC(=O)COCCOCCNC(=O)CC[C@H](NC(=O)CCCCCCCCCCCCCCCCC(=O)O)C(=O)O)C(C)C)C(N)=O [compound 306, *Asp;Arg;Phe;Val;Gly;NmLeu;Nle;NH2] ({C18 diacid-γGlu-AEEA-AEEA}-DRFVG[NMeL][Nle]-NH2) | 80 | 2 | 90 | 65 | 19 | 36 | – | – | –

The remaining compounds from weak to strong by EC50 (hNK2R), led by results:

hNK1R, IP3 Efficacy (hNK1R) [%] | EC50 (hNK2R) [nM] | hNK2R, IP3 Efficacy (hNK2R) [%] | hNK3, IP3 Efficacy (hNK3R) [%] | EC50 (hNK1R) [nM] | EC50 (hNK3R) [nM] | Compound | hNK1R receptor activation, in words (hNK1R) | hNK2R receptor activation, in words (hNK2R) | hNK3R receptor activation, in words (hNK3R)
0 | ~130 | 53 | 80 | – | ~160 | CCCC[C@H](NC(=O)[C@H](CC(C)C)NC(=O)CCNC(=O)[C@@H](NC(=O)[C@H](Cc1ccccc1)NC(=O)[C@H](CO)NC(=O)[C@H](CC(=O)O)NC(=O)[C@@H](NC(=O)[C@H](CCCCN)NC(=O)COCCOCCNC(=O)COCCOCCNC(=O)CC[C@H](NC(=O)CCCCCCCCCCCCCCCCC(=O)O)C(=O)O)[C@@H](C)O)C(C)C)C(N)=O [compound 322, *Lys;Thr;Asp;Ser;Phe;Val;bAla;Leu;Nle;NH2] ({C18 diacid-γGlu-AEEA-AEEA}-KTDSFV[βAla]L[Nle]-NH2) | – | – | –
0 | 29 | 63 | 0 | – | – | CCCC[C@H](NC(=O)[C@H](CC(C)C)N(C)C(=O)CNC(=O)[C@H](CO)NC(=O)[C@H](Cc1ccc(O)cc1)NC(=O)[C@H](CCCCN)NC(=O)[C@H](CC(=O)O)NC(=O)COCCOCCNC(=O)COCCOCCNC(=O)CC[C@H](NC(=O)CCCCCCCCCCCCCCCCC(=O)O)C(=O)O)C(N)=O [compound 386, *Asp;Lys;Tyr;Ser;Gly;NmLeu;Nle;NH2] ({C18 diacid-γGlu-AEEA-AEEA}-DKYSG[NMeL][Nle]-NH2) | – | – | –
0 | 19 | 70 | 0 | – | – | CCCC[C@H](NC(=O)[C@H](CC(C)C)N(C)C(=O)CNC(=O)[C@@H](NC(=O)[C@H](Cc1ccc(O)cc1)NC(=O)[C@H](CCCCN)NC(=O)[C@H](CC(=O)O)NC(=O)COCCOCCNC(=O)COCCOCCNC(=O)CC[C@H](NC(=O)CCCCCCCCCCCCC(=O)O)C(=O)O)C(C)C)C(N)=O [compound 368, *Asp;Lys;Tyr;Val;Gly;NmLeu;Nle;NH2] ({C14 diacid-γGlu-AEEA-AEEA}-DKYVG[NMeL][Nle]-NH2) | – | – | –
50 | 5.8 | 90 | 0 | 200 | – | CCCC[C@H](NC(=O)[C@H](CC(C)C)N(C)C(=O)CNC(=O)[C@@H](NC(=O)[C@H](Cc1ccc(O)cc1)NC(=O)[C@H](CCCCN)NC(=O)[C@@H](N)CC(=O)O)C(C)C)C(N)=O [compound 374, Asp;Lys;Tyr;Val;Gly;NmLeu;Nle;NH2] (H-DKYVG[NMeL][Nle]-NH2) | – | – | –
100 | 3.3 | 100 | 100 | 5.5 | 34 | CCCC[C@H](NC(=O)[C@H](CC(C)C)N(C)C(=O)CNC(=O)[C@@H](NC(=O)[C@H](Cc1ccccc1)NC(=O)[C@H](CCCCN)NC(=O)[C@H](CC(=O)O)NC(=O)COCCOCCNC(=O)COCCOCCNC(=O)CC[C@H](NC(=O)CCCCCCCCCCCCCCCCC(=O)O)C(=O)O)[C@@H](C)O)C(N)=O [compound 387, *Asp;Lys;Phe;Thr;Gly;NmLeu;Nle;NH2] ({C18 diacid-γGlu-AEEA-AEEA}-DKFTG[NMeL][Nle]-NH2) | – | – | –
20 | 1.5 | 90 | 30 | 58 | ~160 | CCCC[C@H](NC(=O)[C@H](CC(C)C)N(C)C(=O)CNC(=O)[C@@H](NC(=O)[C@H](Cc1ccc(O)cc1)NC(=O)[C@H](CCCCN)NC(=O)[C@H](CC(=O)O)NC(=O)COCCOCCNC(=O)COCCOCCNC(=O)CC[C@H](NC(=O)CCCCCCCCCCCCCCCCCCC(=O)O)C(=O)O)C(C)C)C(N)=O [compound 380, *Asp;Lys;Tyr;Val;Gly;NmLeu;Nle;NH2] ({C20 diacid-γGlu-AEEA-AEEA}-DKYVG[NMeL][Nle]-NH2) | – | – | –
